pEC50: −log10 of the molar value.
Key:
[1] = Liver microsomal stability, human; format: in vitro ADME; conditions: 37° C., 4 μM compound, 30 minutes
Experimental: (§1) In vitro metabolism studies were done in mouse, rat, human, and dogs cells (TABLE 2).
(§2) In vitro liver microsomal studies were completed to measure the stability of the compounds against degradation in various species' liver microsomes.
(§3) Compound was incubated in hepatic microsomes over a 30-minute incubation period at 37° C. Incubations both with and without NADPH (2 mM) were performed in a 96-well plate format. The reaction was initiated with the addition of substrate and was terminated by protein precipitation. All incubations were performed using a final substrate concentration of 4 μM in 50 mM sodium phosphate buffer, pH 7.4. The final organic solvent content was 0.5% acetonitrile and 0.02% DMSO. The amount of enzyme present was fixed at 1.11 mg/mL protein irrespective of the species of microsomes used. Samples were analyzed by LC/MS-MS to determine the percent loss in the NAPDH incubations relative to the NADPH free incubations.

[2] = Liver microsomal stability, dog; format: in vitro ADME; conditions: 37° C., 4 μM compound, 30 minutes
Experimental: as §1, §2, §3

[3] = Liver microsomal stability, mouse; format: in vitro ADME; conditions: 37° C., 4 μM compound, 30 minutes
Experimental: as §1, §2, §3

[4] = molecular target: T1, α1, β3, γ2 GABA A receptor (Homo sapiens, UniProt P14867+P18507); assay: FLIPR functional assay, α1 GABAA receptor subtype in HEK-293 cells; format: cell-based
T1 construct: host or cells: HEK-293, stably transfected
T1 sequence (P14867 28-456): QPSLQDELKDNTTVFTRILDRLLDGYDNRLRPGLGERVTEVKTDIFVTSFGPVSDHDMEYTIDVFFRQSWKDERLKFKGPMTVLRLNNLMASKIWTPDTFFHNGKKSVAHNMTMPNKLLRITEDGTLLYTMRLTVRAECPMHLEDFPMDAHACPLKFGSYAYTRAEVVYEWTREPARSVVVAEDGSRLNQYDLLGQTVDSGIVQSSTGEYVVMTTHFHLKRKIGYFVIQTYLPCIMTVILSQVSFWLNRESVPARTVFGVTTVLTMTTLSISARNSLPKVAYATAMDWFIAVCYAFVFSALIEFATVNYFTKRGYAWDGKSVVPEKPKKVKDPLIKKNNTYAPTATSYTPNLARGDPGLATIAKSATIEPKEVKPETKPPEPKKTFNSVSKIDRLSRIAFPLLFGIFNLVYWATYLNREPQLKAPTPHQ
T1 sequence (P28472 26-473 partner): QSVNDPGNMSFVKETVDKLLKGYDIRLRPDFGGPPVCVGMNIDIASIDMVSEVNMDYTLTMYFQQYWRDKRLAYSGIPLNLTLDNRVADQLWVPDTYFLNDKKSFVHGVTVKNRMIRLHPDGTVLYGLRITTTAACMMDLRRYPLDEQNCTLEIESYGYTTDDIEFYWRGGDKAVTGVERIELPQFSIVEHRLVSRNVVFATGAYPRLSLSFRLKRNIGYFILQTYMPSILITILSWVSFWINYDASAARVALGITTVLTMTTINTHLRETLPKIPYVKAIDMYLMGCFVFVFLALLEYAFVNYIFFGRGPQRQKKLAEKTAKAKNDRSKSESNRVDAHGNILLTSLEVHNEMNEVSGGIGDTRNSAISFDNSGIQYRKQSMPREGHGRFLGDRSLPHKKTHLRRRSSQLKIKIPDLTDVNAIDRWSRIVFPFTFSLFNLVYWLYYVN
T1 sequence (P18507 40-475): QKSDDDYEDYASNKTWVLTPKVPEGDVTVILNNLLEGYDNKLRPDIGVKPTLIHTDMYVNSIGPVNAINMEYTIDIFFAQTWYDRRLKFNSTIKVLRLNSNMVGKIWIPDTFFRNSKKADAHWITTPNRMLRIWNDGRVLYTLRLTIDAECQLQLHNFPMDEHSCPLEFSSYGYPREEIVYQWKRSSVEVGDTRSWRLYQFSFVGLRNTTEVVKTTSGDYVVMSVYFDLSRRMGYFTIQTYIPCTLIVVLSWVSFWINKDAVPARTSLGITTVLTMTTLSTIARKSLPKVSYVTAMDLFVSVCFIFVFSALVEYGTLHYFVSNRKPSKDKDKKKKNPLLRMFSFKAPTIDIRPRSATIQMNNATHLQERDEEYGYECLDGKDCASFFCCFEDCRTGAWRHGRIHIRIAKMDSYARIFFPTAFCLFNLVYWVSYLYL
Text: (§4) The FLIPR functional assay is used to determine the EC50 at the α1 and α3 GABAA receptor subtypes. A high EC50 for the α1 subtype would indicate a low chance of adverse effects, including sedation, ataxia, and muscle relaxation. A low α3 EC50 would indicate potential effectiveness as an anxiolytic, antihyperalgesic, and likely an anticonvulsant. See, for example, Liu et al. (Assay. Drug. Dev. Technol. 2008, 6, 781-6) and Joesch et al. (J. Biomol. Screen. 2008, 13, 218-28).
(§5) Compounds tested were synthesized internally and solubilized in DMSO at a 10 mM concentration. GABA was purchase from Sigma (#A2129) and prepared at 100 mM in water.
(§6) HEK-293 cells were stably transfected with the α1, β3, γ2 GABA A receptor subunits (GenBank accession numbers NM_000806.3, NM_000814.5, and NM_198904.1, respectively) or α3, β3, γ2 (NM_000808 for α3) where obtained from ChanTest Co. (Catalog # CT6216 and CT6218, respectively).
(§7) Cells were cultivated in Dulbeco's Modified Eagle's Medium (DMEM, Sigma D5796) supplemented with 10% Fetal Bovine Serum (FBS, Gibco 16000), 0.5 mg/mL Geneticin (Gibco), 0.04 mg/mL Hygromycin B (Gibco), 0.1 mg/mL Zeocin (Gibco) and 20 mM HEPES (Sigma). Cells were grown at 37° C. in a humidified atmosphere of 5% CO2. In the experiments described here frozen cells were used. For this purpose, cells were gown and maintained under confluency during 2-3 weeks and then frozen down at different cell densities using Recovery™ Cell Culture Freezing Medium (Gibco).
(§8) 18 hours prior to the experiment, cells were quickly thawed at 37° C. and seeded on Poly-D-Lys 384 plates (Corning 356663) at a density of 25,000 cells/well and in 25 μL of complete cell medium as described above.
(§9) Membrane potential changes induced by the flux of ions through the receptor were measured as relative fluorescence units (RFU) using the Fluorometric Imaging Plate Reader (FLIPR Tetra®, Molecular Devices) and the FLIPR Membrane Potential Blue Assay kit (Molecular Devices). Prior to the addition of the compounds the medium was removed and cells were loaded with 20 μL of dye prepared in assay buffer composed of Hank's Balanced Salt Solution (HBSS with Ca^+2 and Mg^+2; Gibco 14025) with 20 mM Hepes. After 1 hour of incubation at room temperature (RT), the plate was placed into the FLIPR instrument and experiments were run adding first 10 μL from the 1st addition plate (compound plate) and after a 3 minutes incubation adding 20 μL of the 2nd addition or agonist plate. The response to this last GABA addition was monitored for another 3 minutes. […]
(§10) Data Analysis. The difference between the maximum and the minimum (Max-Min) fluorescence reached during the first addition or read interval and the second read interval were used for data analysis (agonist and potentiation, respectively). […]

Male NIH Swiss mice = assay: Rotorod assay (ataxia); format: in vivo; conditions: 30 mg/kg i.p., 30 minutes prior, 4 r.p.m., two minutes
Experimental: Male NIH Swiss mice (n=10) were dosed i.p. with vehicle (1% carboxymethyl cellulose) or one of the test compounds (10 or 30 mg/kg) 30 minutes prior to being tested on the rotorod. Mice were placed on a rod for two minutes at 4 revolutions per minute. […] Mice that fell twice failed the testing.
The rotorod assay (FIG. 5) is used to determine the ataxic effects, generally stemming from the α1 subtype, that compounds have in test subjects. Mice are trained to run on a slow, rotating cylinder for two minutes, and failure to stay on the rod may be due to ataxia. […] Each set of compounds were tested against a vehicle.
Male NIH Swiss mice (n=10/group) were trained on a rotorod (Ugo Basile 7650) at 4 r.p.m. for two minutes per training session prior to testing. On test day, mice were dosed i.p. with either vehicle (1% carboxymethyl cellulose) or one of the test compounds (10 or 30 mg/kg) 30 minutes prior to testing.

[5] = Liver microsomal stability, rat; format: in vitro ADME; conditions: 37° C., 4 μM compound, 30 minutes
Experimental: as §1, §2, §3

[6] = molecular target: T2, α3, β3, γ2 GABA A receptor (Homo sapiens, UniProt P18507+P34903); assay: FLIPR functional assay, α3 GABAA receptor subtype in HEK-293 cells; format: cell-based; conditions: α3 Binding EC50, FLIPR membrane potential, potentiation of GABA EC20
T2 construct: host or cells: HEK-293, stably transfected
T2 sequence (P34903 29-492): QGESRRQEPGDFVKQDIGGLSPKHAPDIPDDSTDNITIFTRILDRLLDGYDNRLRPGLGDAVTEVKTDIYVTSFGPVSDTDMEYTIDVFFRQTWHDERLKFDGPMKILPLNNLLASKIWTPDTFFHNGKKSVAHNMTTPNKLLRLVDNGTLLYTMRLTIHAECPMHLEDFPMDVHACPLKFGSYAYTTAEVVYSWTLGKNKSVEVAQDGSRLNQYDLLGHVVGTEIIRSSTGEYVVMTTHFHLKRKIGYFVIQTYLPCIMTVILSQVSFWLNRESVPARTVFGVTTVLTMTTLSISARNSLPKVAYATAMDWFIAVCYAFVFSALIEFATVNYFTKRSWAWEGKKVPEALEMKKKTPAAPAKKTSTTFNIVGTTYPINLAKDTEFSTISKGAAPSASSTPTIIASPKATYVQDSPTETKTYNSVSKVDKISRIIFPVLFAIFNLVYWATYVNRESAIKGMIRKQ
T2 sequence (P28472 26-473 partner): as the sequence (P28472 26-473 partner) above
T2 sequence (P18507 40-475): as the sequence (P18507 40-475) above
Text: as §4, §5, §6, §7, §8, §9, §10

Sprague Dawley male rats = assay: Mechanical hyperalgesia (von Frey) in CFA-induced inflammatory pain rat model; format: in vivo
Experimental: Raw data (paw withdrawal threshold, expressed in g of von Frey filament) was converted to a maximal possible effect value according the following equation: % MPE=[(test threshold(g)−control threshold(g)/(pre-CFA threshold−control threshold)]×100.
Complete Freund's adjuvant (CFA) contains Mycobacterium butyricum, inducing inflammation and an increase in paw thickness. 0.1 mL of CFA was injected in the right hind paw of Sprague Dawley male rats under isoflurane anaesthesia.
Mechanical hyperalgesia. Mechanical hyperalgesia was measured 3 days after CFA treatment. Rats (n=6) were placed in elevated boxes with a mesh floor. Von Frey filaments (expressed in g) were applied perpendicularly to the hindpaws, starting with the lowest filament (1.4 g) then increased until hindpaw withdrawal was observed. After each measurement, rats received the next dose of drug (every 20 min) until the maximum threshold (26 g) was observed. For the antagonist study, rats were pretreated with the benzodiazepine site antagonist flumazenil (10 min) and then received the next dose of drug (every 20 min) until the pre-CFA threshold was observed.
Drugs. The following drugs were used: HZ166, KRM-II-18B, and KRM-II-81, and were dissolved in a mixture containing 20% Dimethyl sulfoxide (DMSO), 10% Emulphor-620 (Rhodia Inc.), and 70% of 0.9% saline. Flumazenil (purchased from Cayman Chemical Company, MI) was dissolved in a mixture containing 10% ethanol, 40% propylene glycol, and 50% sterile water. Midazolam (Akorn, Inc.) was dissolved in 0.9% saline. Doses were expressed as the weight of the drug in milligrams per kilogram of body weight and drugs were administered intraperitoneally.

Male Sprague-Dawley rats = assay: von Frey filament test in spinal nerve ligated (SNL) rats; format: in vivo
Experimental: FIG. 11 is a graph of time versus withdrawal threshold for KRM-II-81, Gabapentin, and vehicle, showing the effect of KRM-II-81 on antihyperalgesia in the von Frey filament assay. Male Sprague-Dawley rats (n=5) were dosed i.p. either vehicle, KRM-II-81 (30 mg/kg), or gabapentin (50 mg/kg) and tested in the von Frey filament assay after undergoing SNL 90 days prior. Results were analyzed using ANOVA (Dunnett's test: *P<0.05).
The von Frey filament test is used to test for antihyperalgesia, or an increased sensitivity to pain. […] The von Frey filaments are used to apply pressure to the forelimbs of test subjects at set amounts. When pressure becomes too great, the forelimb is withdrawn and the amount of force applied recorded. The spinal nerve ligation induced hyperalgesia, reducing the amount of force a limb can take before being withdrawn.
Test compounds were given to test the effectiveness of combating the hyperalgesic effect of SNL. Male Sprague-Dawley rats went through SNL at least 90 days prior to the von Frey testing. Rats were first tested without given an injection to determine a baseline. Following baseline establishment, rats (n=5 for all groups) were dosed i.p. with vehicle (1% carboxymethyl cellulose), KRM-II-81 (30 mg/kg), or gabapentin (50 mg/kg). Subjects were then tested every hour for four hours to determine the antihyperalgesic effect of the test compounds. For testing, pressure using von Frey filaments was applied to the forelimb of the rat. Pressure was increased until the limb was withdrawn, and the amount of pressure was recorded.

With Brc1ccc2c(c1)C(c1ccccc1)=NCc1c(-c3cnco3)ncn1-2 the melting point was 225 to 227 °C.

Work on Cc1ncoc1-c1ncn2c1CN=C(c1ccccn1)c1cc(Br)ccc1-2 yielded a melting point of 228 to 230 °C.

Cc1ncoc1-c1ncn2c1CN=C(c1ccccc1)c1cc(Br)ccc1-2 gave a melting point of 236 to 238 °C.

For Cc1ncoc1-c1ncn2c1CN=C(c1ccccc1F)c1cc(Br)ccc1-2, the melting point was 138 to 140 °C.

C[Si](C)(C)C#Cc1ccc2c(c1)C(c1ccccn1)=NCc1c(-c3cnco3)ncn1-2 gave a melting point of 208 to 210 °C.

In the case of Cc1ncoc1-c1ncn2c1CN=C(c1ccccc1)c1cc(C#C[Si](C)(C)C)ccc1-2, the melting point was 130 to 132 °C.

For Cc1ncoc1-c1ncn2c1CN=C(c1ccccc1F)c1cc(C#C[Si](C)(C)C)ccc1-2, the melting point was 209 to 211 °C.

With C#Cc1ccc2c(c1)C(c1ccccn1)=NCc1c(-c3ocnc3C)ncn1-2 the melting point was 209 to 211 °C.

C#Cc1ccc2c(c1)C(c1ccccc1)=NCc1c(-c3ocnc3C)ncn1-2 gave a melting point of 228 to 230 °C.

With C#Cc1ccc2c(c1)C(c1ccccc1F)=NCc1c(-c3ocnc3C)ncn1-2 the melting point was 145 to 147 °C.

With C#Cc1ccc2c(c1)C(c1ccccc1)=NCc1c(-c3cnco3)ncn1-2 [KRM-II-82, 5-(8-Ethynyl-6-phenyl-4H-benzo[f]imidazo[1,5-a][1,4]diazepin-3-yl)oxazole] the “Human Liver microsome stability (reported in % remaining)” value [1] was 74 % remaining, the “Dog Liver microsome stability (reported in % remaining)” value [2] was 86 % remaining and the “Mouse Liver microsome stability (reported in % remaining)” value [3] was 73 % remaining. For the same molecule, the pEC50 [4] was < 4.70, the “rotorod performance at 30 mg/kg” value (Male NIH Swiss mice) was “failed multiple times” and the “Rat Liver microsome stability (reported in % remaining)” value [5] was 72 % remaining. The pEC50 [6] was 7.49.

For Fc1ccccc1C1=NCc2c(-c3cnco3)ncn2-c2ccc(Br)cc21 [SH-I-085, 5-(8-Bromo-6-(2-fluorophenyl)-4H-benzo[f]imidazo[1,5-a][1,4]diazepin-3-yl)oxazole], the “Human Liver microsome stability (reported in % remaining)” value [1] was 62 % remaining, the “Dog Liver microsome stability (reported in % remaining)” value [2] was 77 % remaining and the “Mouse Liver microsome stability (reported in % remaining)” value [3] was 67 % remaining. The pEC50 [4] was < 4.70, the melting point was 190 to 192 °C and the “Rat Liver microsome stability (reported in % remaining)” value [5] was 61 % remaining. For the same molecule, the pEC50 [6] was 7.60.

In the case of CCOC(=O)c1ncn2c1CN(C)C(=O)c1cc(F)ccc1-2 [flumazenil, reference compound], the “shift of PAM dose-effect curves by antagonist pretreatment” value (Sprague Dawley male rats; flumazenil pretreatment 10 min) was “shifted the dose-effect curves of PAMs rightward”.

With NCC1(CC(=O)O)CCCCC1 [gabapentin, reference compound] the “antihyperalgesic activity, von Frey after SNL” value (Male Sprague-Dawley rats; KRM-II-81 30 mg/kg, gabapentin 50 mg/kg i.p.) was “active as antihyperalgesics” and the “pain threshold (force before removing paw)” value (Male Sprague-Dawley rats; from 1-2 hours, vehicle ˜5 g) was ~12 g.

In the case of Cc1ncc2n1-c1ccc(Cl)cc1C(c1ccccc1F)=NC2 [midazolam, reference compound], the “mechanical hyperalgesia in CFA-induced inflammatory pain” value (Sprague Dawley male rats; cumulative i.p. dosing, 3 days after CFA) was “dose-dependently attenuated mechanical hyperalgesia”.

— patent US10259815B2, “Gabaergic ligands and their uses” (UWM Research Foundation, Inc., priority 2015, dated 2019)
